Active and inactive are the calls of the source.
Key:
[1] = insulin promoter down-regulators in MIN6 cells, imaging, high-content screening, mouse beta cells (AID 1628); assay type: functional
[2] = molecular target: Microphthalmia-associated transcription factor (Homo sapiens, UniProt O75030); test: TRPM1 promoter luciferase signal decrease, dose response, MITF inhibitor project, cell-based, SK-MEL-5, cherry-picked, set 3 (AID 493073); assay type: functional
[3] = Luminescence Cell-Based Dose Retest to Confirm Inhibitors of Cancer Stem Cells. [Related pubchem assays (depositor defined):AID2717, AID2721]; assay type: functional; settings: Homo sapiens
[4] = test system: INS1; test: beta cell apoptosis inhibitors, cytokine rescue, dose response, luminescence, retest (AID 449756); assay type: functional, cell-based; settings: Rattus norvegicus;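 note: cell death triggered by IL-1 beta plus TNF-alpha plus IFN-gamma mixture; protective hits raise ATP signal compared with cytokine alone wells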
[5] = cytotoxicity in MIN6 insulinoma cells, dose response, cytotoxicity control, cell-based, mouse insulinoma (AID 2122); assay type: functional;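 note: confirmatory high-throughput counterscreen run to flag cytotoxic compounds; mouse MIN-6 beta cells carrying an insulin promoter eGFP reporter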
[6] = test system: A-375; test: A375 melanoma cell viability reduction, dose response, counter-screen for MITF modulator project, cherry-pick samples, set 2 (AID 540335); assay type: functional, cell-based; settings: Homo sapiens
[7] = NIH-3T3 fibroblast cytotoxicity, dose response, cytotoxicity control, cell-based, fluorescence, Alamar Blue, secondary assay (AID 2327); assay type: functional;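 note: NIH-3T3 mouse fibroblasts cultured with fluconazole at 8 µg/mL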
[8] = C. albicans growth with fluconazole, confirmation, fluorescence, retest (AID 2467); assay type: functional, cell-based
[9] = molecular target: CAAX prenyl protease 2 (Homo sapiens, UniProt Q9Y256); test: human Rce1 protease inhibitors, dose response, biochemical, yeast membranes, quenched-peptide fluorescence, cherry-pick (AID 588849)
Sequence of CAAX prenyl protease 2 (Q9Y256 whole entry): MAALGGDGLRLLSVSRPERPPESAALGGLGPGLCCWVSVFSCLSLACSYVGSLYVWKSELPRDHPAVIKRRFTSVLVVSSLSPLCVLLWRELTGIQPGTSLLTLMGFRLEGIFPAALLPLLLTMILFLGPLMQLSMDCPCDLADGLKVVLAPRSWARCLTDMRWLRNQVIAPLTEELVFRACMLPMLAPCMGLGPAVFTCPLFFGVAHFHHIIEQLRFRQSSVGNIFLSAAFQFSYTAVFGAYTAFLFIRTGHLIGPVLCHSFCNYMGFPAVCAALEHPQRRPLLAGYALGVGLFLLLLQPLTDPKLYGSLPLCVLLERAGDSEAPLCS

[10] = test system: Streptococcus sp. 'group A'; test: growth inhibition of control SK(-) GAS strain, dose response, counter-screen for streptokinase expression inhibitor project, luminescence, kanamycin, BacTiterGlo, confirmation (AID 1900); assay type: functional, organism-based
[11] = test system: Escherichia coli; test: microbe, parasite or virus in culture
[12] = test system: Streptococcus; test: Group A Streptococcus viability loss, dose response, counter-screen for streptokinase expression inhibitor project, luminescence, BacTiterGlo (AID 1915); assay type: functional, organism-based;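 note: potency for reduction of bacterial viability or growth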
[13] = cells; assay type: functional
[14] = test system: HeLa; test: HeLa cell cytotoxicity, dose response, cytotoxicity control for MITF activator project, CellTiter-Glo luminescence, cherry-pick samples (AID 540259); assay type: functional, cell-based; settings: Homo sapiens
[15] = molecular target: Phosphomannomutase 2 (Homo sapiens, UniProt O15305); test: Counter screen SAR assay for PMM2 inhibitors via a fluorescence intensity assay. [Related pubchem assays (depositor defined):AID1545, AID1574]
Sequence of Phosphomannomutase 2 (O15305 whole entry): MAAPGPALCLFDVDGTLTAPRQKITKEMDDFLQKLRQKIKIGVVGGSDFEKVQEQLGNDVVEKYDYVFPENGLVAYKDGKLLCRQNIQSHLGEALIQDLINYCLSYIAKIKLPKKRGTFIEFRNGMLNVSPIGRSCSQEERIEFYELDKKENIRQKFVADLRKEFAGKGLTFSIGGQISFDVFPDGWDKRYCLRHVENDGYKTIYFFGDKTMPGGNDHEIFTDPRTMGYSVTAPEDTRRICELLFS

[16] = molecular target: T1, Mannose-6-phosphate isomerase (Homo sapiens, UniProt P34949); test: PMI enzyme inhibitors, confirmation, biochemical, fluorescence intensity (AID 1535)
T1 sequence (P34949 whole entry): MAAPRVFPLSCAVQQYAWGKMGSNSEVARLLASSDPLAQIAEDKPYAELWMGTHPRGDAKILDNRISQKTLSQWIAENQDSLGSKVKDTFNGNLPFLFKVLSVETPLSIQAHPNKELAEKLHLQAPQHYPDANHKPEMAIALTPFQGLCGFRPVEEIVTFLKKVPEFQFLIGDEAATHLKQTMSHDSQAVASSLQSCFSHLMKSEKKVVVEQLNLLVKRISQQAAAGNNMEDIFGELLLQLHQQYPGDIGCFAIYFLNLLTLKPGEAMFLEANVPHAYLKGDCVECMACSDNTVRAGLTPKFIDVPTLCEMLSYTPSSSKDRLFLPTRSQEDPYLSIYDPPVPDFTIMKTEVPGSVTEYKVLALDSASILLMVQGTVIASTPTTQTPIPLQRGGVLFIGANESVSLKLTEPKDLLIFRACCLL

[17] = test system: HEK293; test: cells; settings: Homo sapiens
[18] = test system: HEK293; test: cells; settings: Homo sapiens; remark: listed apart in the source
[19] = molecular target: Lysine-specific demethylase 4C (Homo sapiens, UniProt Q9H3R0); test: GASC-1 (JMJD2C) histone demethylase inhibitors, dose response, biochemical, DELFIA europium, cherry-picked samples (AID 488835); assay type: functional
Sequence of Lysine-specific demethylase 4C (Q9H3R0 whole entry): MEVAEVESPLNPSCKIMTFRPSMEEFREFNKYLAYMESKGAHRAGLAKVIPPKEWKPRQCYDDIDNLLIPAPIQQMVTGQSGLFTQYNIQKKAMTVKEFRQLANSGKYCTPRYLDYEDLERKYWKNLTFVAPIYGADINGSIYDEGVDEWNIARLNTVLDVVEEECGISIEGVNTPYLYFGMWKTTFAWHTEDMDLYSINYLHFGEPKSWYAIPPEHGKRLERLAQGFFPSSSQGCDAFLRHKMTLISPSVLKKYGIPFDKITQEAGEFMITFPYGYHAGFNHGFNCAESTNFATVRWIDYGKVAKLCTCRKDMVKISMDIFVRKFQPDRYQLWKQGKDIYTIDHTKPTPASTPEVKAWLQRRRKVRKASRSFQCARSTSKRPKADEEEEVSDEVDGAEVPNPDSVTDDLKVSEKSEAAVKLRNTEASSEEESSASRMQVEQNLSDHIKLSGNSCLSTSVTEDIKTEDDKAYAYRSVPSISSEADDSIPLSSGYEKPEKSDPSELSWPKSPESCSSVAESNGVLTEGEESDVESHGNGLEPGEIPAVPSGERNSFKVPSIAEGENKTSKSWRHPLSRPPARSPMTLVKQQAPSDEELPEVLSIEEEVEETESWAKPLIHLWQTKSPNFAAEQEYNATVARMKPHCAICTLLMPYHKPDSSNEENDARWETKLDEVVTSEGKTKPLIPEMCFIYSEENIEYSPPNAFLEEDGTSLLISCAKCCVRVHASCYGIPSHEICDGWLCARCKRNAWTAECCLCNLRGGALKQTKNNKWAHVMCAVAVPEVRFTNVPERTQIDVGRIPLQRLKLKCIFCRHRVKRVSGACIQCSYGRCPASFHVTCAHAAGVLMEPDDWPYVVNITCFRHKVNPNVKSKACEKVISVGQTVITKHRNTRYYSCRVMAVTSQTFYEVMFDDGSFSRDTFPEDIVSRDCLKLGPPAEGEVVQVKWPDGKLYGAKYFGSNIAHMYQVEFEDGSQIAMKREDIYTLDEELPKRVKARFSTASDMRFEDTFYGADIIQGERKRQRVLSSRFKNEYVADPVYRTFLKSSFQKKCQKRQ

[20] = cytotoxicity in HEK-293T cells, dose response, cytotoxicity control for TCR NF-kB inhibitor project, luminescence, T-cell screen hits (AID 489026); assay type: functional, cell-based;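 note: cells exposed to compound about 14 hours before the viability readout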

Sequence of Microphthalmia-associated transcription factor (O75030 whole entry): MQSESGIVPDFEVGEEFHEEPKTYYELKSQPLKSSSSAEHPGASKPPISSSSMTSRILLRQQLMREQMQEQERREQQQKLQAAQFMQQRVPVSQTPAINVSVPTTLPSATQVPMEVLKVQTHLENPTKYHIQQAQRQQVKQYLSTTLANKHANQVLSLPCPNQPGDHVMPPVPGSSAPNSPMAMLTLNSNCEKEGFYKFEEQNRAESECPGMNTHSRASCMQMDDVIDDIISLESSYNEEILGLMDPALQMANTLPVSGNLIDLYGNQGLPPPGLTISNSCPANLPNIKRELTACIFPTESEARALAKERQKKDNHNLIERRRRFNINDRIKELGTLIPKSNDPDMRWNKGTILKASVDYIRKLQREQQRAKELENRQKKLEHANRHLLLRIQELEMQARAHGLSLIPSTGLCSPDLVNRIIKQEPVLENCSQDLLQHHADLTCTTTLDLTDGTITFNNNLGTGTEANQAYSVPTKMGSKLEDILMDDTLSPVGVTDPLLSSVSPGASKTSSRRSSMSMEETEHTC

## Cc1ccc(C(C)C)c(OCc2n[n+](CC(=O)c3ccc(OC(F)F)cc3)c3n2CCCCC3)c1
[1]
  IC50: 1.27 µM (active)
[2]
  AC50: 9.17 µM (active)
[3]
  AC50: 5.68 µM (active)
[4]
  AC50: 3.09 µM (active)
[5]
  IC50: 1.13 µM (active)
[6]
  AC50: 20.1 µM (active)
[7]
  EC50: > 150 µM (inactive)
[8]
  EC50: 0.74 µM (active)

## C/C=C(/C)C(=O)O[C@H]1[C@@H](O)c2c(ccc3ccc(=O)oc23)OC1(C)C
[9]
  AC50: 24.9 µM (active)

## CNC(=S)N1CCN(c2c(F)cc3c(=O)c(C(=O)O)cn(C4CC4)c3c2OC)CC1C (stereo not drawn)
[10]
  EC50: 0.179 µM (active)
[11]
  AC50: 1.44 µM (active)
[12]
  EC50: 0.229 µM (active)
[13]
  IC50: 2.57 µM (active)

## Cn1c(-c2ncc(F)cc2F)cc2onc(-c3c(F)cccc3Cl)c2c1=O
[14]
  AC50: 98 µM (active)

## FC(F)(F)c1nnc(/N=c2\ssnc2Cl)s1
[15]
  IC50: > 100 µM (inactive)
[16]
  IC50: 20.8 µM (active)

## NC(Cc1ccc(C(F)(F)F)cc1)c1csc(NC(=O)Nc2ccccc2Oc2ccccc2)n1 (stereo not drawn)
[17]
  EC50: > 59.6 µM (inactive)
[18]
  EC50: > 59.6 µM (inactive)

## COc1ccc(/C=N/Nc2cc(=O)n(C)c(=O)n2C)cc1OC
[19]
  AC50: 7.21 µM (active)

## COC(=O)C1C(O)C(C)C(O)C(C)(O)/C=C\C=C(/C)C(=O)Nc2c(C)c(OC(C)=O)c3c(c2O)C(=O)C(C)=C2OCOC(=C23)/C(C)=C/C(C)(O)C(O)C(C)C1O (stereo not drawn)
[11]
  AC50: > 150 µM (inactive)

## COc1ccc(Br)cc1/C(C)=N/NC1=NCCN1
[20]
  IC50: > 80 µM (inactive)
[1]
  IC50: 4.74 µM (active)
[5]
  IC50: 3.47 µM (active)
